Counter-ions that a name gives are not always drawn.
Tests used:
[1] = Ca2+ binding affinity of BAPTA conjugate (Calcium Calibration Buffer Kit II)
Description: The fluorescence response and dissociation constant of the fluorescent BAPTA conjugates are determined using the Calcium Calibration Buffer Kit II (Molecular Probes, Inc.; Eugene Oreg.), which is based on a method described by Tsien et al. METH. ENZYM. 172, 230 (1989). For example, 1 mg of Compound 103 is dissolved in deionized water and 5 μL is diluted into 3 mL of each of two buffers, which are cross diluted to arrive at a series of Ca^2+ concentrations between zero and 35 μM. Emission spectra of the dye solutions are scanned between dilutions to generate a family of curves. Each of these curves has maximal fluorescence emission at approximately 530 nm with an increase in fluorescence emission intensity with increasing Ca^2+ concentration. This intensity change is plotted against the concentration of free Ca^2+ to give a value for the dissociation constant of the indicator. […] The calculated dissociation constant at 20° C. is 169 nM.

[2] = biological target: prostatic acid phosphatase (Homo sapiens, UniProt P15309); assay: Detection of acid phosphatase activity; assay type: biochemical; settings: 10 μM substrate, 0.1 units enzyme, pH 5, excitation 490 nm, emission 515 nm
Chain of prostatic acid phosphatase (P15309 33-386): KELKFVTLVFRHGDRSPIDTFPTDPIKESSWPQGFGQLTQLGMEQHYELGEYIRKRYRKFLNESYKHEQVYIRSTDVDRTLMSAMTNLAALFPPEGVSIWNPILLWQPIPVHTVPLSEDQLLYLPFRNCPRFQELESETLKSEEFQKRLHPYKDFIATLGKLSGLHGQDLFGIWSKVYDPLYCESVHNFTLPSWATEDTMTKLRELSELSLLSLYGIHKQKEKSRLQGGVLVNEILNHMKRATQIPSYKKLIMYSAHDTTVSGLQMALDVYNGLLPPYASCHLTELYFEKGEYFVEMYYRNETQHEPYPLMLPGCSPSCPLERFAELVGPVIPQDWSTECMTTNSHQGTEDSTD
Description: The rate of fluorescent product generation is measured by exciting a solution of 10 μM DFFDP or fluorescein diphosphate (FDP) at 490 nm while monitoring the emission at 515 nm in a fluorometer in the presence of 0.1 units of prostatic acid phosphatase at pH 5. Under these conditions, acid phosphatase produces about a 6.5 times greater change in signal using DFFP than FDP.

[3] = biological target: Escherichia coli β-galactosidase (Escherichia coli, UniProt P00722); assay: Labeling β-galactosidase with a fluorinated fluorescein diacetate; settings: 3 mg enzyme in PBS pH 7.5, 13.6 μL of 1 mg/mL dye, 1 hour; estimated with ε=85,600 cm^-1 M^-1 at 515 nm
Chain of Escherichia coli β-galactosidase (P00722 2-1024): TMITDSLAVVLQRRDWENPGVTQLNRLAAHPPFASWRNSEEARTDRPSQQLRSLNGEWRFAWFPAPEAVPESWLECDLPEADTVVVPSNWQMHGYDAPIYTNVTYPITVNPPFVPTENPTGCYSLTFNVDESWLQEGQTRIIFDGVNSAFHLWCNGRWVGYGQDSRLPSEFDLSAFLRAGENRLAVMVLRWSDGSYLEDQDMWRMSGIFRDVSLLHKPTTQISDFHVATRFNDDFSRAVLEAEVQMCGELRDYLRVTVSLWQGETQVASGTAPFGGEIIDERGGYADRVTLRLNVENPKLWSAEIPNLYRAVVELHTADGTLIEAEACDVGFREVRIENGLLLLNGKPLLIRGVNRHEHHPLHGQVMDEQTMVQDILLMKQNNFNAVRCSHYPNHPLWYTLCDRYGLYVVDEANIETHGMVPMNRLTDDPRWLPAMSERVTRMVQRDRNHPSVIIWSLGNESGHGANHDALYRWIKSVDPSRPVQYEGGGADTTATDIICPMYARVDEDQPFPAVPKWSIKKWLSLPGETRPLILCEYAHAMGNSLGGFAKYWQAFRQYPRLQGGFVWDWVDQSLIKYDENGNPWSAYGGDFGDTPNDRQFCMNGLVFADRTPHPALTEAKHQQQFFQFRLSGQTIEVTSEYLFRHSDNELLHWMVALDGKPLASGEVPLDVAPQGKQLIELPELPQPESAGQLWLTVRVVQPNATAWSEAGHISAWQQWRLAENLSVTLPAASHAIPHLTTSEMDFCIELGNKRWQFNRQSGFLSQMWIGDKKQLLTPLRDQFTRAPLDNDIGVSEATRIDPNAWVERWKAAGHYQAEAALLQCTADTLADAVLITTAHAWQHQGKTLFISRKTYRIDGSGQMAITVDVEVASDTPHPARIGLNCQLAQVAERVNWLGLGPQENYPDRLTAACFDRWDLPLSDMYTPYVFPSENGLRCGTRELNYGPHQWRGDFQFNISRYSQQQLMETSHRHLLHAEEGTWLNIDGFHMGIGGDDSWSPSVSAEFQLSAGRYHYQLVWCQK
Description: Escherichia coli β-galactosidase (3 mg) in 150 μL phosphate-buffered saline pH 7.5 is treated with 13.6 μL of a 1 mg/mL stock solution of 4,5,6,7-tetrafluorofluorescein diacetate (Compound 25) in DMSO. After 1 hour the pH is raised to 10 with Na2 CO3 for 2 hours to remove the acetates. Unreacted dye is removed on a spin column. The degree of substitution is estimated at 8.6 using κ=85,600 cm^-1 M^-1 at 515 nm.

[4] = Photodecomposition on illumination in fluorometer; assay type: physicochemical; settings: % of decreased fluorescence intensity after 33 minutes of illumination in fluorometer at wavelength of maximum excitation
Description: *% of decreased fluorescence intensity after 33 minutes of illumination in
fluorometer at wavelength of maximum excitation

[5] = Spectral properties of selected fluorinated fluoresceins and rhodols; assay type: physicochemical
[6] = pH titration of fluorophores (pKa); settings: Table 1
Description: The dye of interest is first dissolved in a series of buffers that have each been calibrated using a pH meter. Acetate buffers are typically used in the range of pH 46, and phosphate buffers in the pH range 68. Absorption measurements are made using solutions that are approximately 10 1M in concentration, and fluorescence measurements are made using solutions that are approximately 1 μM in concentration. The absorption or emission data is then plotted versus pH to determine pKa values.

[7] = system: ATP-dependent dye efflux mechanisms in lymphoid-B cell lines; assay: Dye efflux from labeled cells with and without verapamil or probenecid, flow cytometry; assay type: cell-based
Description: Identical batches of lymphoid-B cell lines cells are separately incubated with […] solutions of 4,5,6,7-tetrafluorofluorescein diacetate (Compound 25), 2',7'-dichloro4,5,6,7-tetrafluorofluorescein diacetate (Compound 28), 2',4,5,6,7,7'-hexafluorofluorescein diacetate ([…]) and 2',4',5',7'-tetrafluorofluorescein diacetate. To one set of each cells is added 100 μM verapamil and to another 1 mM probenecid, both of which are known to block ATP-dependent dye efflux mechanisms, as found in multidrug resistant of cells. Without washing, the cells are analyzed for brightness by flow cytometry using 488-nm excitation.

[8] = system: human lymphoid B-cell culture; assay: Cell labeling with fluorinated fluorescein diacetates, flow cytometry; assay type: cell-based; settings: 1 μM, 37° C., 30 minutes, washed, fixed; compared with FDA after two hours (FIG. 5)
Description: Cells from a human lymphoid B-cell culture in RPMI 1640 medium are treated with 1 μM Compound 25 (4,5,6,7-TFFDA), Compound 26 (2',4,5,6,7,7'-HFFDA), or fluorescein diacetate (FDA) at 37° C. for 30 minutes. Following centrifugation and washing in PBS, the pellets are resuspended in RPMI 1640 medium for 15 min, recentrifuged and washed in PBS, fixed with 3.7% formaldehyde in PBS and analyzed by flow cytometry using 488 nm excitation. […] Alternatively, the stained and washed cells are viewed or analyzed without fixation.

[9] = biological target: T1, Endogenous (Lysosomal) β-galactosidase in NIH 3T3 cells (Mus musculus, UniProt P23780); assay: Detection of endogenous (lysosomal) β-galactosidase activity in intact cells by flow cytometry; assay type: cell-based; settings: 1 μM, 37° C., 30 minutes; for Fluorescence Emission: normalized to FDG, Table 4
T1 construct: Endogenous (Lysosomal) β-galactosidase Activity in Intact Cells; endogenous in cells; host or cells: NIH 3T3
T1 sequence (P23780 30-647): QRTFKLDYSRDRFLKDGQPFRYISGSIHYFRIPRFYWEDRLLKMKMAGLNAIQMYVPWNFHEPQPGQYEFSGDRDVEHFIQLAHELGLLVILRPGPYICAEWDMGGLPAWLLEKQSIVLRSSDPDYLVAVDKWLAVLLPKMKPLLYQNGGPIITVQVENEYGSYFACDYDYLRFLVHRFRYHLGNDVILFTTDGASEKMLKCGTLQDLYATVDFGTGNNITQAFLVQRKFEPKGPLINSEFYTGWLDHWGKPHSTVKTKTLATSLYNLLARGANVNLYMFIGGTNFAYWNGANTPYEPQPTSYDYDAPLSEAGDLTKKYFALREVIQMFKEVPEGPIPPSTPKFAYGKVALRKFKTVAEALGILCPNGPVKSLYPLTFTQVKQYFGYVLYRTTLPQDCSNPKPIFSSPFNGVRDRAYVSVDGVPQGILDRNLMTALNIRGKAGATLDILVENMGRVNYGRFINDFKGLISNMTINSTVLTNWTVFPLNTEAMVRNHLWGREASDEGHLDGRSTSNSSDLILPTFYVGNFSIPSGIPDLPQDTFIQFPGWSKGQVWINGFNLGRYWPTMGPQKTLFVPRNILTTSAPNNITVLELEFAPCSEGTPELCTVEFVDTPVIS
Description: NIH 3T3 cells that are not transfected with exogenous β-galactosidase were cultured in Dulbecco's Modified Minimal Essential Medium supplemented with 10% fetal bovine serum and 2 mM L-glutamine. Stock solutions of TFMFDG and TFFDG in phosphate buffered saline (PBS) are added to the cell culture medium to obtain a final dye concentration of 1 μM. The cells are incubated at 37° C. for 30 minutes, put on ice and assayed immediately by flow cytometry using a FACS-Vantage instrument equipped with an argon-ion laser (488 nm excitation). Fluorescence emission is collected using a 515 nm long-pass filter and a single photomultiplier tube.

[10] = biological target: T2, acid β-galactosidase from bovine testes (Bos taurus, UniProt Q58D55); assay: Detection of acid β-galactosidase activity; assay type: biochemical; settings: 50 μM substrate, 4.6 nM enzyme, pH 4.5, excitation 490 nm, emission 512 nm
T2 construct: from tissue; host or cells: bovine testes
T2 sequence (Q58D55 28-653): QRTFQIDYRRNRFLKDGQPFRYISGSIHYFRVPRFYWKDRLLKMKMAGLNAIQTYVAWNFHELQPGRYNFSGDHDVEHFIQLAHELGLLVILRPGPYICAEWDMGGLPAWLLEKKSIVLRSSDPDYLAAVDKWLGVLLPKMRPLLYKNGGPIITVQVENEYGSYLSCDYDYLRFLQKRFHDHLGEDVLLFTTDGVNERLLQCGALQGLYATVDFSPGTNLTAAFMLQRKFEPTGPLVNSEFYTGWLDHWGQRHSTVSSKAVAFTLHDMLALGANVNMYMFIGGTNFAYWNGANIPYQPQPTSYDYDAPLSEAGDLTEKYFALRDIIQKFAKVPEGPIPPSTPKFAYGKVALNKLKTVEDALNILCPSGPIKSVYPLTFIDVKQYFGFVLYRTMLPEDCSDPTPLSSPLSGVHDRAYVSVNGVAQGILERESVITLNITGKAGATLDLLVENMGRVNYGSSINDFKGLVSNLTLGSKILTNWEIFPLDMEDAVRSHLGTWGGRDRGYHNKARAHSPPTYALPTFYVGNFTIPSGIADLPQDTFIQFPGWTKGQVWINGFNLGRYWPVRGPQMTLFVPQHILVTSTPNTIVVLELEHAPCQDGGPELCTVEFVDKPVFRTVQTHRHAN
Description: The fluorescence resulting from the action of acid β-galactosidase from bovine testes on fluorescein digalactoside (FDG) and DFFDG is compared. The fluorescence increase at 512 nm when excited at 490 nm is measured versus time for 50 μM substrate with 4.6 nM enzyme in assay buffer (200 mM sodium phosphate +75 mM citric acid, pH 4.5). The initial rate of fluorescence production from DFFDG is 3.0 times that obtained using FDG.

Fluorescence Emission [9] | Compound | Mean Fluorescence intensity of labeled cells ([7]; 100 μM verapamil) | Mean Fluorescence intensity of labeled cells ([7]; 1 mM Probenecid) | Mean Fluorescence intensity of labeled cells ([7]; No drug) | fluorescence of stained cells [8] | other results
– | O=C(O)CN(CC(=O)O)c1ccccc1OCCOc1cc(NC(=O)c2ccc3c(c2)C(=O)OC32c3cc(F)c(O)cc3Oc3cc(O)c(F)cc32)ccc1N(CC(=O)O)CC(=O)O [Compound 103] | – | – | – | – | fluorescence emission intensity increase ([1]; Ca^2+ from zero to 35 μM, emission approximately 530 nm): approximately 17 fold; Kd ([1]; Ca^2+, 20° C., read-out: dissociation constant): 169 nM
– | O=C1OC2(c3cc(F)c(OP(=O)(O)O)cc3Oc3cc(OP(=O)(O)O)c(F)cc32)c2ccccc21 [Compound 96, 2',7'-fluorofluorescein Diphosphate, Tetraammonium Salt] | – | – | – | – | change in signal relative to FDP [2]: ~6.5 times
– | O=C1OC2(c3ccc(O)cc3Oc3cc(O)ccc32)c2c(F)c(F)c(F)c(F)c21 [Compound 34, 4,5,6,7-tetrafluorofluorescein] | – | – | – | – | protein labeling (degree of substitution) [3]: minimal protein labeling; photodecomposition [4]: 6.6%; Abs. ([5]; absorption maximum): 508 nm; Em. ([5]; emission maximum): 527 nm; ε × 10^-3 ([5]; extinction coefficient, value is ε × 10^-3): 85.6 cm^-1 M^-1; Quantum Yield ([5]; fluorescence quantum yield): 0.85; pKa [6]: 6.1
– | CC(=O)Oc1ccc2c(c1)Oc1cc(OC(C)=O)ccc1C21OC(=O)c2c(F)c(F)c(F)c(F)c21 [Compound 25, 4,5,6,7-tetrafluorofluorescein Diacetate] | 1892 | 2521 | 732 | significantly higher fluorescence | protein labeling (degree of substitution) [3]: 8.6
– | CC(=O)Oc1c(F)cc2c(c1F)Oc1c(cc(F)c(OC(C)=O)c1F)C21OC(=O)c2ccccc21 [2',4',5',7'-TFFDA, 2',4',5',7'-tetrafluorofluorescein diacetate] | 14.0 | 12.8 | 2.9 | weakly fluorescent | –
– | CC(=O)Oc1cc2c(cc1F)C1(OC(=O)c3c(F)c(F)c(F)c(F)c31)c1cc(F)c(OC(C)=O)cc1O2 [Compound 27, 2',4,5,6,7,7'-hexafluorofluorescein Diacetate] | 212 | 172 | 26.9 | significantly higher fluorescence | –
4.1 | O=C1OC2(c3ccc(O[C@@H]4O[C@H](CO)[C@H](O)[C@H](O)[C@H]4O)cc3Oc3cc(O[C@@H]4O[C@H](CO)[C@H](O)[C@H](O)[C@H]4O)ccc32)c2c(F)c(F)c(F)c(F)c21 [Compound 95, 4,5,6,7-tetrafluorofluorescein, bis-O-galactoside] | – | – | – | – | fluorescence signal relative to FDG [9]: 4.1 times
48.1 | COc1c(F)c(F)c2c(c1F)C1(OC2=O)c2ccc(O[C@@H]3O[C@H](CO)[C@H](O)[C@H](O)[C@H]3O)cc2Oc2cc(O[C@@H]3O[C@H](CO)[C@H](O)[C@H](O)[C@H]3O)ccc21 [TFMFDG, 4,5,7-trifluoro-6-methoxyfluorescein Digalactoside] | – | – | – | – | fluorescence signal relative to FDG [9]: 48.1 times
– | O=C1OC2(c3cc(F)c(O[C@@H]4O[C@H](CO)[C@H](O)[C@H](O)[C@H]4O)cc3Oc3cc(O[C@@H]4O[C@H](CO)[C@H](O)[C@H](O)[C@H]4O)c(F)cc32)c2ccccc21 [Compound 94, 2',7'-difluorofluorescein, bis-O-galactoside] | – | – | – | – | initial rate of fluorescence production relative to FDG [10]: 3.0 times
1.0 | O=C1OC2(c3ccc(O[C@@H]4O[C@H](CO)[C@H](O)[C@H](O)[C@H]4O)cc3Oc3cc(O[C@@H]4O[C@H](CO)[C@H](O)[C@H](O)[C@H]4O)ccc32)c2ccccc21 [FDG, fluorescein digalactoside, reference compound] | – | – | – | – | –
